Measured values as given in US11690825B2 (BOARD OF REGENTS, THE UNIVERSITY OF TEXAS SYSTEM, priority 2016, dated 2023).
Each block holds one compound with its values, some of them ahead of it.

Legend:
[1] = system: arteries (responsiveness to the constrictor activity of phenylephrine); assay: Vasoactivity bioassay: ability of 20-HETE to enhance responsiveness of arteries to phenylephrine (PE) constriction; settings: for Fold Change from 20-HETE: negative values = 20-HETE antagonists, positive values = agonists
[2] = system: mouse models of hypertension; assay: DOX mouse model of hypertension: blood pressure, ACE expression, vascular remodeling; assay type: in vivo
Procedure: Systolic blood pressure measurements were taken using the CODA tail-cuff system (Kent Scientific), which utilizes volume pressure recording sensor technology. Mice were acclimated to the machine for one week prior to day 0 and blood pressure was monitored throughout the length of the experiment. […] At the end of the experiment, mice were anesthetized with ketamine (70 mg/kg) and xylazine (70 mg/kg) and laporotomy was performed. Preglomerular arteries were microdissected and collected for western blot analysis, lipid extraction and functional studies. Measurements of Media Thickness, Media to Lumen Ratio, and Medial Cross-Sectional Area (CSA) Segments of renal interlobar arteries were dissected and mounted on a pressurized myograph and equilibrated for 1 h in oxygenated krebs buffer at 37° C. The operator was blinded to treatments except for the blood pressure range of the animal. Lumen diameters from normotensive animals were determined at 100 mmHg and hypertensive animals at 140 mmHg. Measurements of outer diameter (OD) and inner diameter (ID) under passive conditions were used to calculate media thickness [(OD−ID)/2], media to lumen ratio (OD−ID)/ID], and medial cross-sectional area [CSA=(π/4)×(OD2−ID2)] […] Expression of ACE. […] SDS-polyacrylamide gels were transferred to Tran-Blot Turbo Mini PVDF membranes (Bio-Rad, Hercules, Calif.) followed by blocking buffer (Li-Cor, Lincoln, Nebr.) and subsequent incubation with primary and secondary antibodies.

[3] = system: membrane fractions of human endothelial cells (EC); assay: 20-APheDa UV crosslinking / click-chemistry band competition; assay type: binding; settings: excess amounts of competitor
Procedure: When incubated with membrane fractions of human endothelial cells (EC) followed by 15 min of UV (365 nm) crosslinking and 1 h incubation with the click reagent (DBCO-IRdye 800CW, LiCor), an intense band of approximately 47-49 kDa was detected (FIG. 8c).

ACE = ACE transcription (mRNA) in endothelial cells; assay type: cell-based, human; settings: EC
Water solubility = assay type: physicochemical
From the text: As used herein, the term “water soluble” means that the compound dissolves in water at least to the extent of 0.010 mole/liter or is classified as soluble according to literature precedence.

JCR rats = assay: Coronary collateral growth in rat model of metabolic syndrome; assay type: in vivo; settings: JCR rats compared with SD rats
Cyp4a14−/− mice = assay: High-fat diet in Cyp4a14−/− mice overexpressing 20-HETE; assay type: in vivo, mouse
GPR75 [4] = molecular target: T1, GPR75 (Homo sapiens, UniProt O95800); assay: GPR75 immunoprecipitation in EC (HMVEC); assay type: cell-based; set-up: endogenous in cells; host or cells: HMVEC (human microvascular endothelial cells); EA.hy926 lysate is also mentioned; settings: 10 nM for 5 min
From the text: Immunoprecipitation of GPR75 in EC further indicated its association with Gαq/11, GIT1 and HIC-5 (FIG. 11a). […] No change in GPR75-Gαq/11 association was detected in EC (FIG. 11b).
Immunoprecipitation. […] Western Blot Analysis.
Target sequence in this assay (O95800 whole entry): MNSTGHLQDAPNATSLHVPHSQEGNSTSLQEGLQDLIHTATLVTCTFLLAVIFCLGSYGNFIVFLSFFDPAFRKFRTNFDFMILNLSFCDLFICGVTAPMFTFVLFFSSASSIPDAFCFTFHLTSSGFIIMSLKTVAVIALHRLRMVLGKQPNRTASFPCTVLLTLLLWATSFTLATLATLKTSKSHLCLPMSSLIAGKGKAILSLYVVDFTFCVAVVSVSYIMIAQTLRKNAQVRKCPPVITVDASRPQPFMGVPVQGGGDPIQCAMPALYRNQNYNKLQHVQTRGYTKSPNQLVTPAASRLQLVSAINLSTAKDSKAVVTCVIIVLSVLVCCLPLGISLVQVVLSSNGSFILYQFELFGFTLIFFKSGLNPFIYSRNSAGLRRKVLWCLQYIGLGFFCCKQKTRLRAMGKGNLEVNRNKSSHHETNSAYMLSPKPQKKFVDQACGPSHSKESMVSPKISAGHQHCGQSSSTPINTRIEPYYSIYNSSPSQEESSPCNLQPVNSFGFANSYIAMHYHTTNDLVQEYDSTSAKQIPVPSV
Target sequence in this assay (Q9Y2X7 whole entry partner): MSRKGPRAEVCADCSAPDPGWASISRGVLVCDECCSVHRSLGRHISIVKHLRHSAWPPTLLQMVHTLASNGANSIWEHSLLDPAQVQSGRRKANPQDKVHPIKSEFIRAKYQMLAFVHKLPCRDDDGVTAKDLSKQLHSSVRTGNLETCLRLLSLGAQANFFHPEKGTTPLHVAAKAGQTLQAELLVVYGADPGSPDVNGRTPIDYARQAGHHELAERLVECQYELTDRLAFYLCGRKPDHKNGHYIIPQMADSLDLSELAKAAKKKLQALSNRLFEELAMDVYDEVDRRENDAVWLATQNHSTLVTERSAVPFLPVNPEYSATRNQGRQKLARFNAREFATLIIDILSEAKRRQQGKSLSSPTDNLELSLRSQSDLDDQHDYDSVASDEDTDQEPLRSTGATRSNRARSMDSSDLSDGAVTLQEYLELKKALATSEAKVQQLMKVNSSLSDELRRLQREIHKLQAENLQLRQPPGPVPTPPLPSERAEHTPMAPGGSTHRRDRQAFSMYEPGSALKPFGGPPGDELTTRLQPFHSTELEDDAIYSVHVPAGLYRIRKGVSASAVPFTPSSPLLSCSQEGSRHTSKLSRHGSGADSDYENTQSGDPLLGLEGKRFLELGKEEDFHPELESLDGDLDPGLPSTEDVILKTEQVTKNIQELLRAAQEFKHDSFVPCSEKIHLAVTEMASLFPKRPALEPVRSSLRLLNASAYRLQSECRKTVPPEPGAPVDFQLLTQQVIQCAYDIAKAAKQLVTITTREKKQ

[5] = system: TAFI, thrombin-activated fibrinolysis inhibitor; settings: endothelial cells; cited from earlier work
GPR75 [6] = molecular target: T1, GPR75; assay: β-arrestin GPCR recruitment assay, GPR75 expressed in CHO cells; assay type: cell-based; set-up: expressed in transfected cells; host or cells: CHO cells
From the text: β-arrestin represents a robust and widely used screening technology for GPCR-ligand pairing. GPCR-mediated β-arrestin recruitment is also recognized as a distinct intracellular signaling pathway, and ligand-receptor interactions may show a bias toward β-arrestin over classical GPCR signaling pathways.
Target sequence in this assay (O95800 whole entry): as the sequence (O95800 whole entry) above

EGFR = EGFR tyrosine phosphorylation and c-Src association in EC
[7] = system: NO bioavailability and ACE expression; settings: cited from earlier work
[8] = Cyp4a14−/− mice on a high-fat diet

Compound: C[C@H](O)CCC/C=C\CCCCCCC/C=C\CCCC(=O)N[C@@H](CC(=O)[O-])C(=O)[O-].[Na+].[Na+] [Analog 9, disodium (19(S)-hydroxyeicosa-5(Z),14(Z)-dienoyl)-L-aspartate]
Fold Change from 20-HETE ([1]; fold change of EC50 to PE): −0.59

Compound: CCC(O)CC/C=C\CCCCCCC/C=C\CCCC(=O)[O-].[Na+] (centres unmarked) [Analog 15, Sodium 18-hydroxyeicosa-5(Z),14(Z)-dienoate]
Fold Change from 20-HETE ([1]; fold change of EC50 to PE): −2.17

Compound: [N-]=[N+]=NC[C@H](O)CCC/C=C\CCCCCCC/C=C\CCCC(=O)[O-].[Na+] [Analog 3, Sodium 20-azido-19(R)-hydroxyeicosa-5(Z),14(Z)-dienoate]
Fold Change from 20-HETE ([1]; fold change of EC50 to PE): −5.69

Compound: O=C([O-])CNC(=O)CCC/C=C\CCCCCCC/C=C\CCCCO.[Na+] [Analog 20, sodium (19-hydroxynonadeca-5(Z),14(Z)-dienoyl)glycinate]
Fold Change from 20-HETE ([1]; fold change of EC50 to PE): −0.74

Compound: [N-]=[N+]=NC[C@@H](O)CCC/C=C\CCCCCCC/C=C\CCCC(=O)NS(=O)(=O)c1ccc(NC(=O)CCc2ccc(C(=O)c3ccccc3)cc2)cc1 [PCL, 20-azido-N-((4-(3-(4-benzoylphenyl)propanamido)phenyl)sulfonyl)-19(S)-hydroxyeicosa-5(Z),14(Z)-dienamide]
block of 20-HETE-mediated sensitization of PE vasoconstriction, change of EC50 to PE ([1]; FIG. 8b): 4 fold
Fold Change from 20-HETE ([1]; fold change of EC50 to PE): −3.28

Compound: C[C@@H](O)CCC/C=C\CCCCCCC/C=C\CCCC(=O)N[C@@H](CC(=O)[O-])C(=O)[O-].[Na+].[Na+] [Analog 10, Disodium (19(R)-hydroxyeicosa-5(Z),14(Z)-dienoyl)-L-aspartate]
Fold Change from 20-HETE ([1]; fold change of EC50 to PE): −2.03

Compound: C[C@@H](O)CCC/C=C\CCCCCCC/C=C\CCCC(=O)[O-].[Na+] [Analog 2, 19(R)-Hydroxyeicosa-5(Z),14(Z)-dienoate]
Fold Change from 20-HETE ([1]; fold change of EC50 to PE): −0.85

Compound: [N-]=[N+]=N[C@@H](CO)CCC/C=C\CCCCCCC/C=C\CCCC(=O)[O-].[Na+] [Analog 6, Sodium 19(R)-azido-20-hydroxyeicosa-5(Z),14(Z)-dienoate]
Fold Change from 20-HETE ([1]; fold change of EC50 to PE): 0.50

Compound: CC(O)CCCCCCCCCCCC/C=C\CCCC(=O)[O-].[Na+] (centres unmarked) [Analog 11, Sodium 19-hydroxyeicosa-5(Z)-enoate]
Fold Change from 20-HETE ([1]; fold change of EC50 to PE): −1.66

Compound: O=C(O)CNC(=O)CCCC/C=C\CCCCCCC/C=C\CCCCO [20-6,15-HEDGE, 2-(20-hydroxyeicosa-6(Z),15(Z)-dienamido)acetic acid]
ACE expression in preglomerular microvessels (PGMV) ([2]; compared with lisinopril and losartan): decreases ACE expression
systolic blood pressure ([2]; in combination with DOX, several time points): decreases systolic blood pressure as effectively as the ACE inhibitors lisinopril and losartan
vascular remodeling ([2]; mouse, in vivo): decreasing vascular remodeling

Compound: C[C@H](O)CCC/C=C\CCCCCCC/C=C\CCCC(=O)[O-].[Na+] [Analog 1, sodium 19(S)-hydroxyeicosa-5(Z),14(Z)-dienoate]
Fold Change from 20-HETE ([1]; fold change of EC50 to PE): −0.68

Compound: C[C@@H](O)CCC/C=C\CCCCCCC/C=C\CCCC(=O)NCC(=O)[O-].[Na+] [Analog 8, Sodium (19(R)-hydroxyeicosa-5(Z),14(Z)-dienoyl)glycinate]
Fold Change from 20-HETE ([1]; fold change of EC50 to PE): −4.67

Compound: CC(O)CCC/C=C\CCCCCCCCCCCCC(=O)[O-].[Na+] (centres unmarked) [Analog 12, Sodium 19-hydroxyeicosa-14(Z)-enoate]
Fold Change from 20-HETE ([1]; fold change of EC50 to PE): 0.79

Compound: CC(O)CCC/C=C\CCCCCCCCCCCCC(=O)NCC(=O)[O-].[Na+] (centres unmarked) [Analog 14, Sodium (19-hydroxyeicosa-14(Z)-enoyl)glycinate]
Fold Change from 20-HETE ([1]; fold change of EC50 to PE): −2.56

Compound: CCCCC/C=C\C[C@H](O)/C=C/C=C\C/C=C\CCCC(=O)O [12(S)-HETE, 12(S)-hydroxyeicosa-5(Z),8(Z),10(E),14(Z)-tetraenoic acid]
competition with formation of the 47-49 kDa 20-APheDa band [3]: not

Compound: Sodium 20-azido-19(R)-hydroxyeicosa-5(Z),14(Z)-dienoate [Analog 3]
Fold increase/decrese from 20-HETE ([1]; Table 2, fold change of EC50 to PE): −6.78

Compound: CCL5: a proposed GPR75 ligand
ACE transcription (ACE mRNA) (ACE): did not induce

Compound: O=C([O-])CCC/C=C\CCCCCCC/C=C\CCCCO.[Na+] [Analog 19, Sodium 19-hydroxynonadeca-5(Z),14(Z)-dienoate]
Fold Change from 20-HETE ([1]; fold change of EC50 to PE): −0.68

Compound: C[C@H](O)CCC/C=C\CCCCCCC/C=C\CCCC(=O)NCC(=O)[O-].[Na+] [Analog 7, Sodium (19(S)-hydroxyeicosa-5(Z),14(Z)-dienoyl)glycinate]
Fold Change from 20-HETE ([1]; fold change of EC50 to PE): −3.46

Compound: CC(O)CCC/C=C\CCCCCCC/C=C\CCCc1nnn[nH]1 (centres unmarked) [Analog 21, 19-(1H-Tetrazol-5-yl)nonadeca-6(Z),15(Z)-dien-2-ol]
Fold Change from 20-HETE ([1]; fold change of EC50 to PE): −0.78

Compound: [N-]=[N+]=NC[C@@H](O)CCC/C=C\CCCCCCC/C=C\CCCC(=O)[O-].[Na+] [Analog 4, sodium 20-azido-19(S)-hydroxyeicosa-5(Z),14(Z)-dienoate]
Fold Change from 20-HETE ([1]; fold change of EC50 to PE): −5.45

Compound: [N-]=[N+]=N[C@H](CO)CCC/C=C\CCCCCCC/C=C\CCCC(=O)[O-].[Na+] [Analog 5, Sodium 19(S)-azido-20-hydroxyeicosa-5(Z),14(Z)-dienoate]
Fold Change from 20-HETE ([1]; fold change of EC50 to PE): 0.16

Compound: CC(C)(O)CCC/C=C\CCCCCCC/C=C\CCCC(=O)NCC(=O)[O-].[Na+] [Analog 18, Sodium 2-(19-hydroxy-19-methyleicosa-5(Z),14(Z)-dienamido)acetate]
Fold Change from 20-HETE ([1]; fold change of EC50 to PE): −1.16

water solubility (Water solubility): water-soluble
Compound: COCCOCCOCCOCCOCCOCCOC(=O)CCCC/C=C\CCCCCCC/C=C\CCCCO [20-6,15-SOLA, 2,5,8,11,14,17-hexaoxanonadecan-19-yl 20-hydroxyeicosa-6(Z),15(Z)-dienoate]
impaired coronary collateral growth (CCG) (JCR rats): attenuates
high-fat diet-induced hyperglycemia (Cyp4a14−/− mice; Cyp4a14−/− mice): normalized
high-fat diet-induced obesity (Cyp4a14−/− mice; Cyp4a14−/− mice): attenuates
hyperinsulinemia (Cyp4a14−/− mice; [8]): alleviates
hyperleptinemia (Cyp4a14−/− mice; [8]): alleviates

Compound: CC(O)CCCCCCCCCCCC/C=C\CCCC(=O)NCC(=O)[O-].[Na+] (centres unmarked) [Analog 13, Sodium (19-hydroxyeicosa-5(Z)-enoyl)glycinate]
Fold Change from 20-HETE ([1]; fold change of EC50 to PE): −2.19

GPR75-HIC-5 dissociation (GPR75 [4]): 60%
GPR75 activation (β-arrestin recruitment) (GPR75 [6]): activated GPR75
Compound: O=C(O)CCC/C=C\C/C=C\C/C=C\C/C=C\CCCCCO [Analog 20-HETE, 20-hydroxyeicosa-5(Z),8(Z),11(Z),14(Z)-tetraenoic acid]
ACE transcription (ACE mRNA) (ACE): increase in ACE mRNA
induction of TAFI expression [5]: 2-3 fold
competition with formation of the 47-49 kDa 20-APheDa band [3]: competed with
association of c-Src with EGFR (EGFR; EC): increased
association of c-Src with GIT1 (EGFR; EC): decreased
increase of tyrosine phosphorylation of EGFR (EGFR; EC transduced with control siRNA): 1.99±0.16 fold
increase in EGFR phosphorylation (EGFR; FIG. 12d): 2-3 fold
concentration range of maximal changes in NO bioavailability and ACE expression [7]: 5 to 10 nmol/L

Compound: CCC(O)CC/C=C\CCCCCCC/C=C\CCCC(=O)NCC(=O)[O-].[Na+] (centres unmarked) [Analog 16, Sodium (18-hydroxyeicosa-5(Z),14(Z)-dienoyl)glycinate]
Fold Change from 20-HETE ([1]; fold change of EC50 to PE): −1.13
